# “Also recorded” adds a separate entry of the source.
# Columns and labels:
# HIV-1 = conditions: cited from earlier work
# [1] = cited from earlier work
# IN-Rev interaction = IN-Rev interaction (Human immunodeficiency virus type 1 group M subtype B, UniProt P04618); conditions: cited from earlier work
# viral Integrase enzyme = viral Integrase enzyme (Human immunodeficiency virus type 1 group M subtype B, UniProt P12497); assay: Integrase stimulation in viral infected cells, Example 4; type: cell-based
# Procedure: (§1) Integrase derived peptides (designated as INS) were synthesized as well as control peptide. Humanized Anti-CD24 antibody fragment (scFv) was engineered and fused to the lentivirus envelope. Cell death was measured qualitatively by using fluorescent microscopy and was quantified by the enzymatic MTT assay. Human colorectal cells (DLD1, colorectal adenocarcinoma, FIG. 4A) and breast cancer cells (MCF7, Human breast adenocarcinoma, FIG. 4B) were used for testing the potency of the lentiviral-based system.
# IN = molecular target: T1, IN (Human immunodeficiency virus type 1 group M subtype B, UniProt P12497); conditions: listed as INS; cited from earlier work
# T1 construct: Stimulation of the HIV-1 Integrase Enzymatic Activity and cDNA Integration by a Peptide Derived from the Integrase Protein
# [2] = system: MCF7, Human breast adenocarcinoma; assay: Cell death of lentivirus-infected cells, fluorescent microscopy and MTT assay, Example 4; type: cell-based; conditions: MCF7 infected with CD24-targeted lentivirus; compared to the control peptide
# Procedure: as §1
# HIV-1 integrase = molecular target: T2, HIV-1 integrase (Human immunodeficiency virus type 1 group M subtype B, UniProt P12497); assay: Integrase activity in test tubes (HIV-1 integrase assay kit); type: biochemical
# T2 construct: purchased
# Procedure: The ability of INS to increase the activity of HIV-1 integrase was tested using the HIV-1 integrase assay kit.
# [3] = system: DLD1, colorectal adenocarcinoma; assay: Cell death of lentivirus-infected cells, fluorescent microscopy and MTT assay, Example 4; type: cell-based, human; conditions: DLD1 infected with CD24-targeted lentivirus; compared to the control peptide
# Procedure: as §1
# H1975 cells [4] = assay: Cell survival with LV-scFvCD24 and INr2 peptide, Example 3; type: cell-based, human; conditions: with peptide and LV-scFvCD24 particles
# Procedure: The expression of CD24 in H1975 cells was evaluated by Flow cytometry. Briefly, approximately 1×10^6 cells were used in each experiment. Fluorescein isothiocyanate (FITC)—labeled humanized anti-human CD24 antibodies were used. Detection of bound antibodies was performed on a Cube6 and results were analyzed with the FCS express program. The lentivirus used was anti-CD24 scFv in an MOI of 30. The LentiBoost™ concentration used was 1:100 buffer A+1:100 buffer B (+spinoculation). The INr2 peptide was used in a concentration of 30 μM. FIG. 3A depicts the fluorescence (count) of the tested cells (Left—negative control, only secondary antibody; Right—duplicates of cells expressing CD24 after first and second-FITC antibodies). […] FIG. 3C is a schematic illustration of the of the experiment timeline. […] Particles were added on days 1, 4 and 7 as well.
# [5] = system: BT549 breast cancer cells; assay: Cell survival, enzymatic MTT assay, Example 5; type: cell-based, human
# 1975 lung cancer cells = assay: Cell survival, enzymatic MTT assay, Example 5; type: cell-based, human; conditions: 1975 cells
# H1975 cells [6] = assay: Cell survival, enzymatic MTT assay, Example 2; conditions: with INS peptide and LV-scFvCD24 particles
# Procedure: Cell line “H1975” cells were seeded in 96-well plates (2000 cells/well). […] Particles were added on day 2.
# Sequence of IN-Rev interaction (P04618 whole entry, looked up): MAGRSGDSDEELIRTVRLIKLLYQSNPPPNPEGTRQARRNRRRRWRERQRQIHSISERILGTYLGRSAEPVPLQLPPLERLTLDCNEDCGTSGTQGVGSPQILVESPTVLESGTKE
Compound,virus infectivity (HIV-1),cell permeability [1],IN-Rev interaction (IN-Rev interaction),stimulation of the viral Integrase enzyme (viral Integrase enzyme),direct effect on IN activity (IN),cell death [2],stimulation of the viral Integrase enzyme (HIV-1 integrase),cell death [3],effect of Raltegravir on the decrease in survival (H1975 cells [4]),effect of Raltegravir on the decrease in survival [5],effect of Raltegravir on the decrease in survival (1975 lung cancer cells),effect of Raltegravir on the decrease in survival (H1975 cells [6])
WGSNFTSTTVKA [INr2],stimulated virus infectivity,cell-permeable,abrogated,–,–,–,–,–,–,–,–,–
WTHLEGKIILVAVHVA [INr1],stimulated virus infectivity,cell-permeable,abrogated,–,–,–,–,–,–,–,–,–
WTAVQMAVFIHNFKRK [INS peptide],stimulated virus infectivity,cell-permeable,abrogated,able to stimulate,directly activates the free IN; also recorded: direct stimulatory effect,Massive cell death,able to stimulate,Massive cell death,–,–,–,–
Cc1nnc(C(=O)NC(C)(C)c2nc(C(=O)NCc3ccc(F)cc3)c(O)c(=O)n2C)o1 [Raltegravir],–,–,–,–,–,–,–,–,ameliorated,ameliorated,ameliorated,ameliorated
